Patent US11926628B2 (Gilead Sciences, Inc., priority 2021, dated 2024)

What was measured:
human DGKα = human DGKα (Homo sapiens (Human), UniProt P23743); test: DGKα Biochemical Activity Assay (ADP-Glo); conditions: recombinant DGKα 1 nM, 100 μM ATP, 18:1 DAG/POPS/octylglucoside micelles, 1 hour at 25° C.; geometric mean; read-out: HTBS DGKa 1X ATP KM IC50
Description: Alternatively, the enzymatic activity of human DGKα was monitored in a biochemical assay in the presence or absence of compounds and using micelles containing 18:1 Diacylglycerol (DAG), 16:0-18:1 PS (POPS) and Octylglucoside as substrate. DGKα activity led to conversion of DAG and ATP to Phosphatidic Acid (PA) and ADP. Levels of ADP were monitored by bioluminescence using the ADP-Glo Kinase Assay (Promega) and were indicative of DGKα activity.
Ten nanoliters of test compound dissolved in DMSO at various concentrations were dispensed into a 384-well low volume nonbinding service white plates (Corning #3824) using a Labcyte Echo instrument. Recombinant DGKα (Carna Biosciences) in assay buffer (5 μL in 50 mM MOPS [3-(N-morpholino) propanesulfonic acid], pH 7.2; 0.0025% Triton X-100; 1 mM dithiothreitol; 5 mM MgCl2, 200 μM ATP) was added to the compound-containing plate and was incubated for 15 minutes at 25° C. A substrate solution (5 μL in 1.7 mM 1,2-dioleoyl-sn-glycerol [18:1 DAG], 13.5 mM 1-palmitoyl-2-oleoyl-sn-glycero-3-phospho-L-serine [16:0-18:1 PS](POPS), 2 μM CaCl2, 100 mM Octylglucoside (OG), 1 mM DTT) (obtained from Carna Biosciences) diluted in DGK ALPHA assay buffer was then added to start the reaction. Final concentrations were 1 nM DGKα, 100 μM ATP, 1 μM calcium chloride, 0.85 mM 1,2-dioleoyl-sn-glycerol (18:1 DAG), 6.75 mM 1-palmitoyl-2-oleoyl-sn-glycero-3-phospho-L-serine (16:0-18:1 PS) (POPS), 1 μM CaCl2), 50 mM Octylglucoside (OG) and 5 mM MgCl2. The reaction mixture was incubated at 25° C. for 1 hour. ADP-Glo Reagent (10 μL, 10 mM Mg added) provided by the kit was added to each well and incubated at 25° C. for 40 minutes. Then, 20 μL of Kinase Detection Reagent was added and incubated at 25° C. for 40 minutes. Luciferase activity of each well was measured via luminescence on an Envision plate reader (PerkinElmer).
Data were normalized based on maximum inhibition (50 μM of kinase inhibitor CU3) and no inhibition (DMSO) controls. Least squares curve fittings were performed using a four-parameter variable slope nonlinear regression model. IC50 was defined as the concentration of compound required to inhibit 50% of maximum activity. IC50 values from multiple experiments were averaged by geometric mean and the standard deviation was calculated.

[1] = system: Jurkat NFκB-luciferase cells; test: Jurkat NFκB-Luciferase Assay; type: cell-based; conditions: Homo sapiens; Jurkat NFκB-luciferase cells activated with anti-CD3 antibody (OKT3), 2.5 hrs at 37° C.; geometric mean; read-out: DGK NFKb Luciferase EC50
Procedure: The activity of compounds was tested in a cell based NFκB reporter assay. Jurkat cells that are stably expressing a luciferase reporter construct under the transcriptional control of a NFκB reporter element were activated with an anti-CD3 antibody and luciferase levels were measured with a bioluminescence readout. An increase in the levels of bioluminescence was indicative of enhanced T-cell activation following DGKα inhibition by the compound.
Flat-bottom polystyrene plates (384-well, tissue culture treated) were coated overnight at 4° C. with 20 ul/well of a solution of phosphate-buffered saline supplemented with 5 ug/ml anti-CD3 antibody (clone OKT3, Biolegend). The day after, the excess antibody was washed out five times with 100 ul/well of assay medium (RPMI supplemented with 10% fetal bovine serum) using a Biotek EL406 instrument and leaving 20 ul of residual volume in each well. Jurkat NFκB-luciferase cells (Promega #) were harvested and diluted to 1 million cells/ml in assay medium. Sixty nanoliters of test compound dissolved in DMSO at various concentrations were dispensed into 384-well v-bottom polypropylene plates (Greiner) using a Labcyte Echo instrument. Thirty microliters of medium containing the Jurkat NFκB-luciferase cells were then dispensed using a Biotek MicroFlo instrument in each well of the compound-containing plate. The medium/cell/compound mixture was mixed with a Bravo instrument and 20 ul/well of the mixture was transferred to the anti-CD3-coated plate. The assay mixture was then incubated for 2.5 hrs at 37° C. followed by equilibration at 25° C. for 30 min. Forty microliters of One-Glo Ex (Promega) was then added to the assay mixture and luciferase activity was read on a Envision plate reader 7 minutes later.
Bioluminescence data were normalized based on maximum enhancement (1 micromolar of compound) and on basal activation (DMSO) controls. Least squares curve fittings were performed using a four-parameter variable slope nonlinear regression model. EC50 is defined as the concentration of compound required to produce 50% of maximum NFκB luciferase signal. EC50 values from multiple experiments were averaged by geometric mean and the standard deviation was calculated.

Sequence of human DGKα (P23743 whole entry): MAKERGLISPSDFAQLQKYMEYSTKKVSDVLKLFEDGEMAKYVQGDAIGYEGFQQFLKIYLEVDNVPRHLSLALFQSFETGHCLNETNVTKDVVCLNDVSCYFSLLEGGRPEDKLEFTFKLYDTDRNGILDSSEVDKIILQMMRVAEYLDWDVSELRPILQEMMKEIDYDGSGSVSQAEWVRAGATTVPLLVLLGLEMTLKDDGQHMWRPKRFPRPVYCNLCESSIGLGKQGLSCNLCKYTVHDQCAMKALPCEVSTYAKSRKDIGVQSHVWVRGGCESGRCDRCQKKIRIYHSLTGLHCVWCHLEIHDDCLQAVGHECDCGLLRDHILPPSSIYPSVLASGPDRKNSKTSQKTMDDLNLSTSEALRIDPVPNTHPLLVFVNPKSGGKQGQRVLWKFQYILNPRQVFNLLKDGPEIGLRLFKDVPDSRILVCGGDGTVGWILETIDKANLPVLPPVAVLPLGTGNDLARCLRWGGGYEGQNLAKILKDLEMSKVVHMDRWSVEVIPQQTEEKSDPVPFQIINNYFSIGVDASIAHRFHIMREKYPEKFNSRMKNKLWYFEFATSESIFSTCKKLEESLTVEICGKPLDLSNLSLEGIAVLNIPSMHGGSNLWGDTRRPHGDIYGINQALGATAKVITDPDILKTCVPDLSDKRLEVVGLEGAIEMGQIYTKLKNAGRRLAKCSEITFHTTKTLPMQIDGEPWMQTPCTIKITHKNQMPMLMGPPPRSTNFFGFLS

Row | IC50 (human DGKα) [nM] | EC50 [1] [nM] | Structure (SMILES)
1 | 71.8 | 2.9 | Fc1cc(C#CC2(C(F)(F)F)CC2)cc(N(CC(F)F)c2nc3nncn3c3cccnc23)c1 [Example 20, N-(2,2-difluoroethyl)-N-(3-fluoro-5-((1-(trifluoromethyl)cyclopropyl)ethynyl)phenyl)pyrido[2,3-e][1,2,4]triazolo[4,3-a]pyrimidin-5-amine]
2 | 73.9 | 12.5 | Cc1nnc2nc(N3CCCc4c(C#CC(C)(C)C(F)(F)F)cccc43)c3ncccc3n12 [Example 21, 3-methyl-8-[5-(4,4,4-trifluoro-3,3-dimethyl-but-1-ynyl)-3,4-dihydro-2H-quinolin-1-yl]-2,4,5,7,10-pentazatricyclo[7.4.0.02,6]trideca-1(13),3,5,7,9,11-hexaene]
3 | 23.2 | 3.26 | Cc1nnc2nc(N3CCCc4c(C#CC5(C)CC5)cccc43)c3ncccc3n12 [Example 22, 3-methyl-8-[5-[2-(1-methylcyclopropyl)ethynyl]-3,4-dihydro-2H-quinolin-1-yl]-2,4,5,7,10-pentazatricyclo[7.4.0.02,6]trideca-1(13),3,5,7,9,11-hexaene]
4 | 41.9 | 13.5 | Cc1nnc2nc(N3CCCc4c(C#CC5(C(F)(F)F)CC5)cccc43)c3ncccc3n12 [Example 23, 3-methyl-8-[5-[2-[1-(trifluoromethyl)cyclopropyl]ethynyl]-3,4-dihydro-2H-quinolin-1-yl]-2,4,5,7,10-pentazatricyclo[7.4.0.02,6]trideca-1(13),3,5,7,9,11-hexaene]
5 | 17 | 2.77 | CC1(C#Cc2cccc3c2CCCN3c2nc3nncn3c3cccnc23)CC1 [Example 24, 8-[5-[2-(1-methylcyclopropyl)ethynyl]-3,4-dihydro-2H-quinolin-1-yl]-2,4,5,7,10-pentazatricyclo[7.4.0.02,6]trideca-1(13),3,5,7,9,11-hexaene]
6 | 22.6 | 3.08 | FC(F)(F)C1(C#Cc2cccc3c2CCCN3c2nc3nncn3c3cccnc23)CC1 [Example 25, 8-[5-[2-[1-(trifluoromethyl)cyclopropyl]ethynyl]-3,4-dihydro-2H-quinolin-1-yl]-2,4,5,7,10-pentazatricyclo[7.4.0.02,6]trideca-1(13),3,5,7,9,11-hexaene]
7 | 21.2 | 8.37 | Cc1nnc2nc(N3CCCc4c(C#CC5(CF)CC5)cccc43)c3ncccc3n12 [Example 26, 5-(5-((1-(fluoromethyl)cyclopropyl)ethynyl)-3,4-dihydroquinolin-1(2H)-yl)-1-methylpyrido[2,3-e][1,2,4]triazolo[4,3-a]pyrimidine]
8 | 6.83 | 6.11 | FCC1(C#Cc2cccc3c2CCCN3c2nc3nncn3c3cccnc23)CC1 [Example 27, 5-(5-((1-(fluoromethyl)cyclopropyl)ethynyl)-3,4-dihydroquinolin-1(2H)-yl)pyrido[2,3-e][1,2,4]triazolo[4,3-a]pyrimidine]
9 | 11.9 | 33.6 | Cc1nnc2nc(N3CCCc4c(C#CC(C)(C)O)cccc43)c3c(F)cncc3n12 [Example 28, 4-(1-(6-fluoro-1-methylpyrido[4,3-e][1,2,4]triazolo[4,3-a]pyrimidin-5-yl)-1,2,3,4-tetrahydroquinolin-5-yl)-2-methylbut-3-yn-2-ol]
10 | 37.7 | 7.24 | Cc1nnc2nc(N3CCCc4c3ccnc4C#CC3(C(C)(F)F)CC3)c3c(F)cncc3n12 [Example 29, 5-(5-((1-(1,1-difluoroethyl)cyclopropyl)ethynyl)-3,4-dihydro-1,6-naphthyridin-1(2H)-yl)-6-fluoro-1-methylpyrido[4,3-e][1,2,4]triazolo[4,3-a]pyrimidine]
11 | 24.8 | 13.2 | Cc1nnc2nc(N3CCCc4c3ccnc4C#CC(C)(C)C(F)(F)F)c3c(F)cncc3n12 [Example 30, 6-fluoro-1-methyl-5-(5-(4,4,4-trifluoro-3,3-dimethylbut-1-yn-1-yl)-3,4-dihydro-1,6-naphthyridin-1(2H)-yl)pyrido[4,3-e][1,2,4]triazolo[4,3-a]pyrimidine]
12 | 72.3 | 81.1 | Cc1nnc2nc(N3CCCc4c3ccnc4C#CC(C)(C)C#N)c3c(F)cncc3n12 [Example 31, 4-(1-(6-fluoro-1-methylpyrido[4,3-e][1,2,4]triazolo[4,3-a]pyrimidin-5-yl)-1,2,3,4-tetrahydro-1,6-naphthyridin-5-yl)-2,2-dimethylbut-3-ynenitrile]
13 | 12.6 | 8.79 | Cc1nnc2nc(N3CCCc4c3ccnc4C#CC3(C)CC3)c3c(F)cncc3n12 [Example 32, 6-fluoro-1-methyl-5-(5-((1-methylcyclopropyl)ethynyl)-3,4-dihydro-1,6-naphthyridin-1(2H)-yl)pyrido[4,3-e][1,2,4]triazolo[4,3-a]pyrimidine]
14 | 22.4 | 5.13 | Cc1nnc2nc(N3CCCc4c3ccnc4C#CC3(C(F)(F)F)CC3)c3c(F)cncc3n12 [Example 33, 6-fluoro-1-methyl-5-(5-((1-(trifluoromethyl)cyclopropyl)ethynyl)-3,4-dihydro-1,6-naphthyridin-1(2H)-yl)pyrido[4,3-e][1,2,4]triazolo[4,3-a]pyrimidine]
15 | 42.8 | 3.34 | Cc1nnc2nc(N3CCCc4c(C#CC5(C(C)(F)F)CC5)cncc43)c3c(F)cncc3n12 [Example 34, 5-(5-((1-(1,1-difluoroethyl)cyclopropyl)ethynyl)-3,4-dihydro-1,7-naphthyridin-1(2H)-yl)-6-fluoro-1-methylpyrido[4,3-e][1,2,4]triazolo[4,3-a]pyrimidine]
16 | 20.1 | 5.97 | Cc1nnc2nc(N3CCCc4c(C#CC5(C(F)F)CC5)cncc43)c3c(F)cncc3n12 [Example 35, 5-(5-((1-(difluoromethyl)cyclopropyl)ethynyl)-3,4-dihydro-1,7-naphthyridin-1(2H)-yl)-6-fluoro-1-methylpyrido[4,3-e][1,2,4]triazolo[4,3-a]pyrimidine]
17 | 40.4 | 8.86 | Cc1nnc2nc(N3CCCc4c(C#CC(C)(C)C(F)(F)F)cncc43)c3c(F)cncc3n12 [Example 36, 6-fluoro-1-methyl-5-(5-(4,4,4-trifluoro-3,3-dimethylbut-1-yn-1-yl)-3,4-dihydro-1,7-naphthyridin-1(2H)-yl)pyrido[4,3-e][1,2,4]triazolo[4,3-a]pyrimidine]
18 | 52.9 | 54.9 | Cc1nnc2nc(N3CCCc4c(C#CC(C)(C)C#N)cncc43)c3c(F)cncc3n12 [Example 37, 4-(1-(6-fluoro-1-methylpyrido[4,3-e][1,2,4]triazolo[4,3-a]pyrimidin-5-yl)-1,2,3,4-tetrahydro-1,7-naphthyridin-5-yl)-2,2-dimethylbut-3-ynenitrile]
19 | 17.9 | 6.07 | Cc1nnc2nc(N3CCCc4c(C#CC5(C)CC5)cncc43)c3c(F)cncc3n12 [Example 38, 6-fluoro-1-methyl-5-(5-((1-methylcyclopropyl)ethynyl)-3,4-dihydro-1,7-naphthyridin-1(2H)-yl)pyrido[4,3-e][1,2,4]triazolo[4,3-a]pyrimidine]
